# Test results taken from patent US20250127799A1, “DRUG CONJUGATES FOR BONE MARROW PROTECTION” (priority 2023, published 2025).
# Peptide text beside a SMILES is read from it. * marks the point of attachment. X1 = O=C(CCCCCN1C(=O)CC(*)C1=O)NCCCC(O)(P(=O)(O)O)P(=O)(O)O; X2 = O=P(O)(O)SCCNCCCN*
# Legend:
# [1] = Conjugate cleavage in fresh bone marrow aspirate (HPLC); assay type: in vitro ADME; conditions: fresh bone marrow aspirate; human bone marrow aspirate, same donor, 37° C., up to 6 h; read-out: time to reach 50% conjugate cleavage (converted)
# Method: The proteolytic cleavage of conjugates determines the therapeutic window, which is controlled by the specific peptide sequence. In a representative cleavage experiment, a […] stock solution of a conjugate (30 mg/mL) was mixed with 90 μL of fresh bone marrow aspirate, followed by incubation at 37° C. for up to 6 h. A 10 μL sample was taken every hour, diluted in 90 μL acetonitrile to precipitate proteins and extract conjugates and cleavage products. The concentrations of the conjugates in samples were determined by HPLC, normalized, and presented as the cleavage ratio.
# CD2F1 male mice = test: Pathological evaluation of irradiated mice injected with a single dose; assay type: in vivo; set-up: key to Pathological change grade: Spleen, Depletion, white pulp / Pathological change grade: Lung, Infiltrate, mixed cells / Pathological change grade: Lung, Fibrosis / Pathological change grade: Heart, Infiltrate, mixed cells / Pathological change grade: Heart, Mineralization / Pathological change grade: Duodenum / Pathological change grade: Jejunum / Pathological change grade: Ileum / Pathological change grade: Colon, Infiltrate, mixed cells / Pathological change grade: Kidney / Pathological change grade: Urinary bladder / Pathological change grade: Bone Marrow, Atrophy / Pathological change grade: Bone Marrow, Hemorrhage / Pathological change grade: Liver: 0=no change; 1=a minimal change, barely perceptible; 2=a mild change; 3 =a moderate change, affecting up to 50% of the tissue; 4=marked change, affecting up to 90% of the tissue; 5=severe or maximum change
# Method: CD2F1 male mice (N=16) were subcutaneously (sc) injected with a single dose of one conjugate drug. For one protective drug conjugate (Conjugate 2), the tested doses were 250, 500, 600, and 700 mg/kg, and the irradiation was conducted at 24 h post-drug administration. The structure of Conjugate 2 included amifostine as the protective drug, alendronate as the bone-targeting ligand, and a protease-cleavable peptide having the sequence of CPLGLYAL (SEQ ID NO: 29) with acetylation at the N-terminus (e.g., AcCPLGLYAL; SEQ ID NO: 76). On day 30, surviving mice were humanely sacrificed and necropsied, eleven tissues of interest (liver, spleen, lung, heart, duodenum, jejunum, ileum, colon, kidney, urinary bladder, and sternum/bone marrow) were collected, preserved in fixative, and processed to glass slides. The completed preparations were stained with hematoxylin and eosin and examined microscopically. Pathological changes in the tissues were graded using a semi-quantitation scale of 0-5, where 0=no change, 1=a minimal change, barely perceptible; 2=a mild change; 3 =a moderate change, affecting up to 50% of the tissue; 4=marked change, affecting up to 90% of the tissue; and 5=severe or maximum change.
# [2] = 250 mg/kg sc, 24 h before 9.2 Gy, day 30, N = 11
# [3] = 500 mg/kg sc, 24 h before 9.2 Gy, day 30, N = 12
# [4] = 600 mg/kg sc, 24 h before 9.2 Gy, day 30, N = 15
# [5] = 700 mg/kg sc, 24 h before 9.2 Gy, day 30, N = 16
structure (smiles),measurement,setting,value
CC(=O)N[C@@H](CSC1CC(=O)N(CCCCCC(=O)NCCCC(O)(P(=O)(O)O)P(=O)(O)O)C1=O)C(=O)N1CCC[C@H]1C(=O)N[C@@H](CC(C)C)C(=O)NCC(=O)N[C@@H](CC(C)C)C(=O)N[C@@H](Cc1ccc(O)cc1)C(=O)N[C@@H](C)C(=O)N[C@@H](CC(C)C)C(=O)NCCCNCCSP(=O)(O)O (stereo partly drawn) [Conjugate 2] (Ac-C(X1)PLGLYAL-X2),half-life at 3 mg/mL,[1],4.2 h
same,"Pathological change grade: Bone Marrow, Atrophy",CD2F1 male mice; [2],2-3
same,"Pathological change grade: Bone Marrow, Hemorrhage",CD2F1 male mice; [2],0-1
same,"Pathological change grade: Colon, Infiltrate, mixed cells",CD2F1 male mice; [2],1
same,Pathological change grade: Duodenum,CD2F1 male mice; [2],0
same,"Pathological change grade: Heart, Infiltrate, mixed cells",CD2F1 male mice; [2],0
same,"Pathological change grade: Heart, Mineralization",CD2F1 male mice; [2],0
same,Pathological change grade: Ileum,CD2F1 male mice; [2],0
same,Pathological change grade: Jejunum,CD2F1 male mice; [2],0
same,Pathological change grade: Kidney,CD2F1 male mice; [2],0
same,Pathological change grade: Liver,CD2F1 male mice; [2],0
same,"Pathological change grade: Lung, Fibrosis",CD2F1 male mice; [2],0
same,"Pathological change grade: Lung, Infiltrate, mixed cells",CD2F1 male mice; [2],0
same,"Pathological change grade: Spleen, Depletion, white pulp",CD2F1 male mice; [2],2
same,Pathological change grade: Urinary bladder,CD2F1 male mice; [2],0
same,"Pathological change grade: Bone Marrow, Atrophy",CD2F1 male mice; [3],2-3
same,"Pathological change grade: Bone Marrow, Hemorrhage",CD2F1 male mice; [3],0-1
same,"Pathological change grade: Colon, Infiltrate, mixed cells",CD2F1 male mice; [3],1
same,Pathological change grade: Duodenum,CD2F1 male mice; [3],0
same,"Pathological change grade: Heart, Infiltrate, mixed cells",CD2F1 male mice; [3],0
same,"Pathological change grade: Heart, Mineralization",CD2F1 male mice; [3],0
same,Pathological change grade: Ileum,CD2F1 male mice; [3],0
same,Pathological change grade: Jejunum,CD2F1 male mice; [3],0
same,Pathological change grade: Kidney,CD2F1 male mice; [3],0
same,Pathological change grade: Liver,CD2F1 male mice; [3],0
same,"Pathological change grade: Lung, Fibrosis",CD2F1 male mice; [3],0
same,"Pathological change grade: Lung, Infiltrate, mixed cells",CD2F1 male mice; [3],0
same,"Pathological change grade: Spleen, Depletion, white pulp",CD2F1 male mice; [3],1-2
same,Pathological change grade: Urinary bladder,CD2F1 male mice; [3],0
same,"Pathological change grade: Bone Marrow, Atrophy",CD2F1 male mice; [4],2-3
same,"Pathological change grade: Bone Marrow, Hemorrhage",CD2F1 male mice; [4],0-1
same,"Pathological change grade: Colon, Infiltrate, mixed cells",CD2F1 male mice; [4],0-1
same,Pathological change grade: Duodenum,CD2F1 male mice; [4],0
same,"Pathological change grade: Heart, Infiltrate, mixed cells",CD2F1 male mice; [4],0
same,"Pathological change grade: Heart, Mineralization",CD2F1 male mice; [4],0
same,Pathological change grade: Ileum,CD2F1 male mice; [4],0
same,Pathological change grade: Jejunum,CD2F1 male mice; [4],0
same,Pathological change grade: Kidney,CD2F1 male mice; [4],0
same,Pathological change grade: Liver,CD2F1 male mice; [4],0
same,"Pathological change grade: Lung, Fibrosis",CD2F1 male mice; [4],0
same,"Pathological change grade: Lung, Infiltrate, mixed cells",CD2F1 male mice; [4],0
same,"Pathological change grade: Spleen, Depletion, white pulp",CD2F1 male mice; [4],1-2
same,Pathological change grade: Urinary bladder,CD2F1 male mice; [4],0
same,sternal bone marrow histology compared to Vehicle Group,"CD2F1 male mice; 700 mg/kg 24 h before 9.2 Gy, day 30 (FIG. 11B)",much denser marrow
same,"white pulp of the spleen, histology","CD2F1 male mice; 700 mg/kg 24 h before 9.2 Gy, day 30 (FIG. 11D)",essentially normal
same,"Pathological change grade: Bone Marrow, Atrophy",CD2F1 male mice; [5],2
same,"Pathological change grade: Bone Marrow, Hemorrhage",CD2F1 male mice; [5],0
same,"Pathological change grade: Colon, Infiltrate, mixed cells",CD2F1 male mice; [5],0-1
same,Pathological change grade: Duodenum,CD2F1 male mice; [5],0
same,"Pathological change grade: Heart, Infiltrate, mixed cells",CD2F1 male mice; [5],0
same,"Pathological change grade: Heart, Mineralization",CD2F1 male mice; [5],0
same,Pathological change grade: Ileum,CD2F1 male mice; [5],0
same,Pathological change grade: Jejunum,CD2F1 male mice; [5],0
same,Pathological change grade: Kidney,CD2F1 male mice; [5],0
same,Pathological change grade: Liver,CD2F1 male mice; [5],0
same,"Pathological change grade: Lung, Fibrosis",CD2F1 male mice; [5],0
same,"Pathological change grade: Lung, Infiltrate, mixed cells",CD2F1 male mice; [5],0
same,"Pathological change grade: Spleen, Depletion, white pulp",CD2F1 male mice; [5],1-2
same,Pathological change grade: Urinary bladder,CD2F1 male mice; [5],0
same,"protective effects on tissue pathology, especially bone marrow","CD2F1 male mice; 250, 500, 600, 700 mg/kg, 24 h before 9.2 Gy",significant dose-depending protective effects
